# Where “and” joins values, the source holds several entries; their conditions need not be identical. Equal entries are not always repeated. Where two headings read alike, the source gives them in different places.
# Experiments:
# [1] = Urinary excretion (bioavailability) after intravenous, oral and nasal administration in the rat; drug in urine determined by muscarinic receptor binding assay; type: in vivo, male Sprague-Dawley rats; conditions: for amount of the compound found in the urine / dose excreted at 6 h / dose excreted at 24 h / dose excreted at 12 h: 2 mg/rat; for dose excreted at 6 h / dose excreted at 24 h / dose excreted at 12 h / bioavailability: urine, 2 mg; for dose excreted at 6 h: hours 0-6, mean of 10 rats; for dose excreted at 6 h / dose excreted at 24 h / dose excreted at 12 h: read-out: amount of the compound found in the urine; for dose excreted at 12 h: hours 6-12, mean of 10 rats
# Procedure: As a representative drug of this class of compounds N-cyclopropylmethylscopolamine bromide was employed in the method and in the compositions according to the present invention. The bioavailability of this compound after administration by nasal and oral route has been examined and then compared by the following general method. The investigated drug was administered in equal doses by the nasal, oral and intravenous route. 6, 12 and 24 hours after administration the quantitative excretion into the urine for any of the routes of administration was studied. The total amount of the drug excreted during the investigated time intervals was expressed as percentage of the intravenously eliminated amount, considering the latter value as an equivalent for 100% bioavailability.
# In detail the following studies have been carried out. For each experiment 10 male Sprague-Dawley rats, weighing 280+ 20g have been used. For the i.v. administration rats fasted for 18 hours were anaesthetized by intraperitoneal sodium pentobarbital solution 2 ml/kg corresponding to 60 mg/kg/rat. A 4% solution of the drug in buffered saline (pH=7.4) was injected into the femoral vein ([…] corresponding to 2 mg of the active ingredient). For the oral administration 18 hours fasted and conscious rats received an 0.2% solution of the drug in saline by means of a stomach tube (1 ml/rat corresponding to 2 mg of the active principle). For the nasal administration the investigated compounds, for example N-cyclopropylmethyl scopolamine bromide, was administered to 18 hours fasted and as above described anaesthetized rats at a dose of 2 mg/rat.
# (§1) This dose corresponds either to 25µl of saline (4% solution) or 5 mg of a 20% gel introduced into both nasal cavities by means of micropipette. After the administration by any route the animals were transfered into metabolic cages and received 3 ml of water by stomach tube. The urine was collected 6,12 and 24 hours after administration and the excreted drug was determined with the following original method which is based on the binding affinity of the drugs to their pharmacological receptors. […] It follows from this that knowing the affinity of the drugs it is possible to assay the concentration of the drugs in biological fluids. For this a suitable in vitro receptor preparation and a radio ligand that can bind specifically to the receptor and can be displaced by the test compound is needed. In the present invention tritiated N-methyl- scopolamine (^3H-NMS) in a final concentration of 3.10^-10M that occupies 50% of the muscarinic receptors was employed. As in vitro receptor preparation we used a homogenate from rat cerebral cortex diluted 1:3000 in 20 mM HEPES, 100 mM NaCl and 10 mM MgCl2 (pH 7.4). After incubation of ^3H-NMS with the receptor preparation receptor bound ligand was separated from free ligand by centrifugation and the amountof the receptor bound ligand was measured as radioactivity (dpm) in the pellet.
# [2] = test system: muscarinic receptor of cerebral cortex; assay: Displacement of 3H-NMS from the muscarinic receptor (standard curve, Fig. 1); type: binding; conditions: rat cerebral cortex homogenate, 3H-NMS 3.10^-10M, increasing concentrations
# Procedure: as §1, with “pellet. […]” for “pellet.”
compound,measurement,setting,value
C[N+]1(CC2CC2)C2CC(OC(=O)C(CO)c3ccccc3)CC1C1OC12 (centres unmarked) [N-cyclopropylmethylscopolamine bromide],PERCENT URINARY EXCRETION BY OTHER ROUTES RELATIVE TO I.V. ADMINISTRATION,"[1]; I.V., hours 0-6, rat (relative to total 0-24 h i.v. excretion)",88.01%
same,PERCENT URINARY EXCRETION BY OTHER ROUTES RELATIVE TO I.V. ADMINISTRATION,"[1]; I.V., hours 0-24, rat (reference = 100)",100.00%
same,PERCENT URINARY EXCRETION BY OTHER ROUTES RELATIVE TO I.V. ADMINISTRATION,"[1]; I.V., hours 6-12, rat",8.45%
same,PERCENT URINARY EXCRETION BY OTHER ROUTES RELATIVE TO I.V. ADMINISTRATION,"[1]; I.V., hours 12-24, rat",3.54%
same,PERCENT URINARY EXCRETION BY OTHER ROUTES RELATIVE TO I.V. ADMINISTRATION,"[1]; NASAL GEL, hours 0-6, rat",9.01%
same,PERCENT URINARY EXCRETION BY OTHER ROUTES RELATIVE TO I.V. ADMINISTRATION,"[1]; NASAL GEL, hours 0-24, rat",22.85%
same,PERCENT URINARY EXCRETION BY OTHER ROUTES RELATIVE TO I.V. ADMINISTRATION,"[1]; NASAL GEL, hours 6-12, rat",8.90%
same,PERCENT URINARY EXCRETION BY OTHER ROUTES RELATIVE TO I.V. ADMINISTRATION,"[1]; NASAL GEL, hours 12-24, rat",4.94%
same,PERCENT URINARY EXCRETION BY OTHER ROUTES RELATIVE TO I.V. ADMINISTRATION,"[1]; NASAL SOLUTION, hours 0-6, rat",21.23%
same,PERCENT URINARY EXCRETION BY OTHER ROUTES RELATIVE TO I.V. ADMINISTRATION,"[1]; NASAL SOLUTION, hours 0-24, rat",23.00%
same,PERCENT URINARY EXCRETION BY OTHER ROUTES RELATIVE TO I.V. ADMINISTRATION,"[1]; NASAL SOLUTION, hours 6-12, rat",1.43%
same,PERCENT URINARY EXCRETION BY OTHER ROUTES RELATIVE TO I.V. ADMINISTRATION,"[1]; NASAL SOLUTION, hours 12-24, rat",0.34%
same,PERCENT URINARY EXCRETION BY OTHER ROUTES RELATIVE TO I.V. ADMINISTRATION,"[1]; OS, hours 0-6, rat",1.02%
same,PERCENT URINARY EXCRETION BY OTHER ROUTES RELATIVE TO I.V. ADMINISTRATION,"[1]; OS, hours 0-24, rat",1.40%
same,PERCENT URINARY EXCRETION BY OTHER ROUTES RELATIVE TO I.V. ADMINISTRATION,"[1]; OS, hours 6-12, rat",0.30%
same,PERCENT URINARY EXCRETION BY OTHER ROUTES RELATIVE TO I.V. ADMINISTRATION,"[1]; OS, hours 12-24, rat",0.08%
same,release profile from urinary excretion,"[1]; nasal gel, excretion nearly constant 0-6 and 6-12 hours, rat",prolonged release
same,absorption after nasal administration as compared to the per oral form,"[1]; nasal, both by solution and in the form of gel, rat",16 times
same,amount of the compound found in the urine,"[1]; nasal, gel, hours 0-24, individual rats, 1440 min",5.26 percentage of the total administered dose and 11.19 percentage of the total administered dose and 5.28 percentage of the total administered dose and 5.19 percentage of the total administered dose and 8.40 percentage of the total administered dose and 6.94 percentage of the total administered dose
same,amount of the compound found in the urine,"[1]; nasal, gel, hours 6-12, individual rats, 720 min",2.00 percentage of the total administered dose and 4.58 percentage of the total administered dose and 1.63 percentage of the total administered dose and 2.17 percentage of the total administered dose and 3.24 percentage of the total administered dose and 2.90 percentage of the total administered dose and 1.53 percentage of the total administered dose
same,amount of the compound found in the urine,"[1]; nasal, gel, hours 12-24, individual rats, 1440 min",1.19 percentage of the total administered dose and 1.9 percentage of the total administered dose and 2.0 percentage of the total administered dose and 0.63 percentage of the total administered dose and 2.04 percentage of the total administered dose and 1.18 percentage of the total administered dose
same,amount of the compound found in the urine,"[1]; nasal, solution, hours 0-6, individual rats, 360 min",4.12 percentage of the total administered dose and 6.25 percentage of the total administered dose and 5.53 percentage of the total administered dose and 8.86 percentage of the total administered dose and 2.93 percentage of the total administered dose and 2.68 percentage of the total administered dose and 4.82 percentage of the total administered dose and 11.42 percentage of the total administered dose and 5.17 percentage of the total administered dose and 4.55 percentage of the total administered dose
same,amount of the compound found in the urine,"[1]; nasal, solution, hours 0-24, individual rats, 1440 min",4.52 percentage of the total administered dose and 6.59 percentage of the total administered dose and 5.75 percentage of the total administered dose and 9.23 percentage of the total administered dose and 3.17 percentage of the total administered dose and 3.11 percentage of the total administered dose and 5.55 percentage of the total administered dose and 11.88 percentage of the total administered dose and 6.12 percentage of the total administered dose and 5.07 percentage of the total administered dose
same,amount of the compound found in the urine,"[1]; nasal, solution, hours 6-12, individual rats, 720 min",0.33 percentage of the total administered dose and 0.25 percentage of the total administered dose and 0.13 percentage of the total administered dose and 0.23 percentage of the total administered dose and 0.19 percentage of the total administered dose and 0.39 percentage of the total administered dose and 0.65 percentage of the total administered dose and 0.28 percentage of the total administered dose and 0.86 percentage of the total administered dose and 0.44 percentage of the total administered dose
same,dose excreted at 6 h,"[1]; rat, nasal, gel",2.39%
same,dose excreted at 24 h,"[1]; rat, nasal, gel, hours 0-24, mean of 10 rats",6.06%
same,dose excreted at 12 h,"[1]; rat, nasal, gel",2.36%
same,dose excreted at 24 h,"[1]; rat, nasal, gel, hours 12-24, mean of 10 rats",1.31%
same,dose excreted at 6 h,"[1]; rat, nasal, solution",5.63%
same,dose excreted at 24 h,"[1]; rat, nasal, solution, hours 0-24, mean of 10 rats",6.1%
same,dose excreted at 12 h,"[1]; rat, nasal, solution",0.38%
same,dose excreted at 24 h,"[1]; rat, nasal, solution, hours 12-24, mean of 10 rats",0.09%
same,dose excreted at 6 h,"[1]; rat, iv, intravenous",23.2%
same,dose excreted at 24 h,"[1]; rat, iv, intravenous, hours 0-24, individual rats",31%
same,dose excreted at 24 h,"[1]; rat, iv, intravenous, hours 0-24, mean of 10 rats",26.5%
same,dose excreted at 12 h,"[1]; rat, iv, intravenous",2.24%
same,dose excreted at 24 h,"[1]; rat, iv, intravenous, hours 12-24, mean of 10 rats",0.94%
same,dose excreted at 6 h,"[1]; rat, po, oral",0.27%
same,dose excreted at 24 h,"[1]; rat, po, oral, hours 0-24, mean of 10 rats",0.37%
same,dose excreted at 12 h,"[1]; rat, po, oral",0.08%
same,dose excreted at 24 h,"[1]; rat, po, oral, hours 12-24, mean of 10 rats",0.02%
same,bioavailability,"[1]; after oral administration, rat, read-out: bioavailability",1.4%
same,bioavailability,"[1]; nasal route, both galenic formulations, solution and gel, rat, read-out: absolute bioavailability",23%
same,ability to displace 3H-NMS from the muscarinic receptor,[2],inhibit the specific binding between ^3H-NMS and receptor in a dose dependent manner

# From EP0131315A2, “Nasal preparations comprising anticholinergic quaternary ammonium salts” (ISTITUTO DE ANGELI S.p.A., priority 1983, dated 1985)
